Source: US11953501B2, “Compositions and methods to detect gastrointestinal disease” (The Board of Supervisors of Louisiana State University and …, priority 2016, dated 2024)
Where two headings read alike, the source gives them in different places.

Target: T1, intestinal alkaline phosphatase (iAP) (Homo sapiens, UniProt P09923)
T1 construct: The supernatant contained proteins secreted in the gut lumen, on which our analysis is focused; from tissue; host or cells: stool supernatant (200 mg/mL slurry in water, centrifuged) from human preterm infants
T1 sequence (P09923 20-503 limits assumed): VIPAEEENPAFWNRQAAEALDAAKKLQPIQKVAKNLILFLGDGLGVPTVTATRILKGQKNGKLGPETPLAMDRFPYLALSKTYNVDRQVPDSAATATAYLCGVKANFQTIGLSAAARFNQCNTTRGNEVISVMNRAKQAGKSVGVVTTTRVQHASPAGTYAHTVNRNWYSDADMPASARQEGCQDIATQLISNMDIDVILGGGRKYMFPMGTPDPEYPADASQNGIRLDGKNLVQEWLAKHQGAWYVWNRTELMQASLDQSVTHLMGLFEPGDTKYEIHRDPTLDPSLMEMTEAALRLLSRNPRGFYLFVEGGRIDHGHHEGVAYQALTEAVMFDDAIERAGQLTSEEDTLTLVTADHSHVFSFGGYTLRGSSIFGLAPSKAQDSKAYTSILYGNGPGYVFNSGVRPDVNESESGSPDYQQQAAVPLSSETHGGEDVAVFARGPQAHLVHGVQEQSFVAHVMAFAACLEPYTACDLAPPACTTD
Assay: Fecal iAP catalytic activity, 4-methylumbelliferyl phosphate (MUP) fluorometric assay with and without L-phenylalanine
Type: biochemical
Details: 10 mM L-Phe, spread is SD, read-out: inhibition of AP activity by L-Phe
Procedure: Fecal iAP catalytic activity: Alkaline phosphatase activity was measured with use of 4-methylumbelliferyl phosphate (MUP) as a fluorescent substrate (Abcam, ab83371) in the presence and absence of L-phenylalanine, an inhibitor of iAP. Relative fluorescence units (RFUs) at 360/440 nm were measured using a Spectra Max M2e spectrophotometer (Molecular Devices, Sunnyvale, CA). Ninety-six-well black optical bottom plates were used. Standards and negative controls were prepared for each plate run. Total AP activity was determined as: AP activity (mU/mL)=(B×dilution factor)/(T×V), in which B is nmol of product; V is volume of sample added to the well; T is reaction time; and U is the amount of enzyme causing hydrolysis of 1 μmol of MUP per minute at pH 10.0 and 25° C. […]
Fecal iAP Activity—Alkaline phosphatase activity was ascertained with the use of 4-methylumbelliferyl phosphate as a fluorescent substrate ab83371 (Abeam). […] Relative fluorescence units (RFUs) at 360/440 nm wavelengths were measured using a Spectra Max M2e spectrophotometer (Molecular Devices, Sunnyvale, CA). […] Reaction wells for samples, standards and negative background controls were prepared each time the assay was performed and total alkaline phosphatase activity was determined using: ALP activity (mU/ml)=(B/T)/V x dilution factor […]

inhibition at 10000 µM (stool samples from NEC patients): 90%
inhibition at 10000 µM (stool samples from control patients): 91%
Structure (SMILES): N[C@@H](Cc1ccccc1)C(=O)O [L-Phe, L-phenylalanine]
